Assay results: patent US7767671B2, “3-Quinolinecarbonitrile protein kinase inhibitors” (Wyeth, priority 2004, dated 2010)

Tests used:
[1] = target: T1, Raf and/or Mek kinase (human c-Raf, GST-MEK1) (Homo sapiens, UniProt P04049+Q02750); assay: Raf/Mek kinase cascade assay; format: biochemical; conditions: c-Raf dependent activation of GST-MEK and GST-MAPK, phospho-MAPK ELISA; (a)/(b)/(c) = average of two/three/four runs
T1 construct: Sf9 insect cell lysate containing full length 6his-tagged recombinant human c-Raf; 6His; host or cells: Sf9 insect cells (c-Raf, used as lysate); E. coli (MEK1-GST, GST-MAPK)
Protocol: Raf/Mek Kinase Cascade Assay Procedure
(Specific Activity: ˜200 U/ml). Human Non-active Mek-1-GST and human GST-MAP kinase (recombinant proteins produced in E. coli).
Stock Solutions Raf/Mek Cascade Assay:
• 1. Assay Dilution Buffer (ADB): 20 mM MOPS, pH 7.2, 25 mM β-glycerol phosphate, 5 mM EGTA, 1 mM sodium orthovanadate, 1 mM dithiothreitol; • 2. Magnesium/ATP Cocktail: 500 μM cold ATP and 75 mM magnesium chloride in ADB; • 3. Active Kinase: Human Active c-Raf: Use at 0.4 U per assay point; • 4. Non-active GST-MEK1: Use at 0.1 μg per assay point; and • 5. Non-active GST-p42 MAP Kinase: Use at 1.0 μg per assay point. Stock Solutions ELISA: • 1. TBST-Tris (50 mM, pH 7.5), NaCl (150 mM), Tween-20 (0.05%); • 2. Superblock (Pierce); • 3. Anti-GST Ab (Pharmacia); • 4. Anti-Phospho MAPK (Sigma); and • 5. Anti-Mouse Ab/Europium conjugate (Wallac). Assay Procedure: First Stage: c-Raf Dependent Activation of GST-MEK and GST-MAPK • 1. Add […] of ADB per assay (i.e. per well of a 96 well plate); • 2. Add 10 ml of 0.5 mM cold ATP and 75 mM magnesium chloride in ADB; • 3. Add 2 ml of c-Raf (0.4 U/assay), in conjunction with 1.6 ml non-active MEK1 (0.4 […]/assay); • 4. Add 4 ml of non-active GST-p42 MAP Kinase (1.0 mg/assay); • 5. Incubate for 60 minutes at 30° C. in a shaking incubator; • 6. Transfer this mixture to an anti-GST Ab coated 96 well plate (Nunc Immunosorb plates coated o/n with a-GST, then blocked with Pierce Superblock); • 7. Incubate for 60 minutes at 30° C. in a shaking incubator; • 8. Wash 3× with TBST, add Anti-Phospho MAPK (Sigma) (1:3000); • 9. Incubate for 60 minutes at 30° C. in a shaking incubator; • 10. Wash 3× with TBST, add Anti-Mouse Ab/Europium conjugate (Wallac) (1:500); • 11. Incubate for 60 minutes at 30° C. in a shaking incubator; • 12. Wash 3× with TBST, Read plates in Wallac Victor model Plate Reader; and • 13. Collect data analyze in Excel for single point and IC50 determinations.
Single point assay—% inhibition at […] (% Inhibition=1−cpd·treated sample/untreated control). IC50 determinations—done on compounds from single point assays with >80% inhibition. Typically, the Raf/Mek assay is run at compound concentrations from 10 μM to 1 nM in half log dilutions. (% inhibition is determined for each compound concentration). The results obtained measure Raf and/or Mek kinase inhibition, and for representative compounds of this invention are listed in Table 1.

LoVo = assay: Cell based screen for inhibitors of Raf and/or Mek kinase (SRB), LoVo; parameters: species or system human; conditions: Homo sapiens, 96 h, LoVo cells, four days incubation, (a)/(b)/(c) = average of two/three/five runs
Protocol: Cell Based Screen for Inhibitors of Raf and/or Mek Kinase. Materials
Cell Lines: Human adenocarcinoma cell line LoVo, known to be growth inhibited by low nM concentrations of a reference standard inhibitor of Ras and human adenocarcinoma cell line CaCo-2, known to be growth resistant to the same reference compound.
Cell Media: RPMI 1640 with 10% Fetal Bovine Serum supplemented with L-glutamine and Penicillin/Streptomycin.
Cells are plated at 2000 cells per well for cell line LoVo and 1500 cells for cell line CaCo-2 in 96 well plates. Cells are plated in media (200 μl) and allowed to adhere overnight at 37° C. At 24 hours post plating, compounds are added directly at a volume of 0.5 μl. For the qualitative screen (compounds screened at 25 μM) compound is added directly to cells. For the quantitative screen, compound is first diluted in DMSO to generate concentrations of compound or reference standard of: 1, 5, 10 and 25 μM. It is advisable to make the dilutions in an identical 96 well plate so that compounds can be added using a multichannel micropipettor set at 0.5 μl. The cells are then incubated for four days after which the media is removed using a 12 well manifold by first tipping the plate forward at a 45 degree angle and then inserting the manifold in an upright orientation to prevent the tips of the manifold from disturbing cells at the bottom of the plate. 200 μl of normal saline is then added to each well using an 8 well multichannel pipettor, followed by the careful addition of 50 μl of 50% TCA. The plates are then incubated for 2 hours at 4° C., after which the supernatant is removed using the same technique as above and the plated cells are washed twice with 200 μl water. The plates are then air dried and 50 μl of SRB stock solution is carefully added so that the entire bottom of each well is covered. This again can be done using an 8 well multichannel pipettor. The SRB is incubated with fixed cells for 15 minutes at room temperature after which the SRB is removed with the manifold as described above and the plates washed twice with 350 μl of 1% acetic acid per well each time. The plates are then air dried after which the bound SRB is released from protein by the addition of 200 μl of Tris base. Resolubilizing the SRB is aided by placing the plates on a rotator for 15-30 minutes. The absorbance of each well is determined at 550 or 562 nm using a microtiter plate reader.
Each compound or dilution thereof is performed in triplicate. Outliers are identified by visual inspection of the data. Each plate should have a “0” control (vehicle only).
Quantitative Assay: A standard curve is constructed by plotting the concentration of compound against the average absorbance calculated at that concentration. A curve is plotted and the concentration at which the curve passes through the 50% the absorbance mark seen in the “0” control well is the IC50 calculated for that compound. Multiple entries for a given compound indicate that it is tested multiple times.

T1 sequence (P04049 whole entry): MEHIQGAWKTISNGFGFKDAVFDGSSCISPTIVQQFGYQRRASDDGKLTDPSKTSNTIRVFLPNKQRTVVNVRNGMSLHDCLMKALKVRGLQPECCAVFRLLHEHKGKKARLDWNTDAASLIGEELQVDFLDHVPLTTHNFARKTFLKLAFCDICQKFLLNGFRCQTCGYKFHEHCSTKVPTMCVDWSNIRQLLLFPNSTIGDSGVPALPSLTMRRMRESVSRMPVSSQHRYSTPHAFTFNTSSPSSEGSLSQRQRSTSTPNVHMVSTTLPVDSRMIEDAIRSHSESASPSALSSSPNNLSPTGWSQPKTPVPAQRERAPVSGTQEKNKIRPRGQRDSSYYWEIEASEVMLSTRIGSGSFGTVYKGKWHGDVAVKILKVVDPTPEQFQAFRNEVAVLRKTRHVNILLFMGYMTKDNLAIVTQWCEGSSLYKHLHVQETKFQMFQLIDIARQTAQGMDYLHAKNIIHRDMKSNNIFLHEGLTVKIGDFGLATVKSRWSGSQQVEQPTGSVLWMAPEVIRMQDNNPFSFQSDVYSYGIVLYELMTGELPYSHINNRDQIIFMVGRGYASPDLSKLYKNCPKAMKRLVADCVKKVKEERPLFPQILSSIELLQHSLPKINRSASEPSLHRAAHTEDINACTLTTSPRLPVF
T1 sequence (Q02750 whole entry): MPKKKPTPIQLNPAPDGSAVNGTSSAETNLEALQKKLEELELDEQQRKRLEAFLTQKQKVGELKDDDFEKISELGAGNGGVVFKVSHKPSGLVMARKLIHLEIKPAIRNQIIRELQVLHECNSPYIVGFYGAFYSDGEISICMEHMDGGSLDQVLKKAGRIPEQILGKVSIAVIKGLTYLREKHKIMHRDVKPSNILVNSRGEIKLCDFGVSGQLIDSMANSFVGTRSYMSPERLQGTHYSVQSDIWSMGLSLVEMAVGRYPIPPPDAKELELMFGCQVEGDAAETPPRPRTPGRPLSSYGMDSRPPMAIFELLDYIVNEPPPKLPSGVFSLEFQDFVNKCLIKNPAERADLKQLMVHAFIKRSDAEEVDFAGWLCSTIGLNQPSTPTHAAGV

IC50 [1]: 20 nM
IC50 (LoVo): 900 nM
melting point: 141 °C (dec.)
Compound: COc1cc2c(Nc3ccc(Oc4ccccc4)cc3)c(C#N)cnc2cc1OCCN1CCC(N2CCCCC2)CC1 [Example 32, 7-(2-[1,4′]Bipiperidinyl-1′-yl-ethoxy)-6-methoxy-4-(4-phenoxy-phenylamino)-quinoline-3-carbonitrile]
